# Measured values published in EP1005865A1, “A anti-allergy anti-inflammatory composition comprising nimesulide and cetirizine” (priority 1998, dated 2000).
# Counter-ions that a name gives are not always drawn.
# Experiments:
# [1] = cited from earlier work
# [2] = tested on: Leukotriene D4 (LTD4) induced bronchoconstrictor in guinea pigs; assay: Leukotriene D4-induced bronchospasm in guinea pig (insufflation pressure); conditions: for % Insufflation pressure after LTD4 1 µg/kg LTD4: control 186.02 ± 52.58; for % Insufflation pressure after LTD4 2 µg/kg LTD4: control 246.56 ± 14.33; for decrease in % insufflation pressure, LTD4-induced bronchoconstriction: matches the 1 µg/kg LTD4 column of Table 3
# [3] = tested on: Antigen (egg albumin) induced bronchoconstrictor in guinea pigs; assay: Egg albumin (antigen)-induced bronchospasm in sensitized guinea pig (insufflation pressure)
# Description: The animals were stabilized for 10 minutes.
# Cetirizine was dissolved in deionized water. […] Histamine and d-tubocurarine chloride were dissolved in saline and Leukotriene D4 was diluted with Methanol and Ammonium Acetate buffer in a ratio of 70 : 30 at a pH of 5.4.
# Guinea pigs were sensitized by injections of 100 mg of Egg albumin ip and 100 mg Egg albumin sc in saline. Guinea pigs were used after day 21st.
# [4] = tested on: Histamine induced bronchoconstrictor in guinea pigs; assay: Histamine-induced bronchospasm in anaesthetised, ventilated guinea pig (insufflation pressure); conditions: for Histamine Challenge (% Insufflation pressure) 5 µg/kg: histamine 5 µg/kg iv, control 187.42 ± 22.49; for Histamine Challenge (% Insufflation pressure) 10 µg/kg: histamine 10 µg/kg iv, control 239.07 ± 43.64
# PDE IV = PDE IV inhibitor in vitro, reported; cited from earlier work
# chronic hives patients = conditions: daily regimen of 10mg of cetirizine; cited from earlier work
# [5] = Nimesulide 11.66 mg/kg p.o 2 hours before challenge
# [6] = Nimesulide 23.32 mg/kg p.o 2 hours before challenge
# [7] = Cetrizine 1.16 mg/kg p.o 2 hours before challenge, n 1
# [8] = Cetrizine 1.16 mg/kg p.o 2 hours before challenge
smiles,measurement,setting,value
O=C(O)c1cc(=O)c2c(OCC(O)COc3cccc4oc(C(=O)O)cc(=O)c34)cccc2o1 [cromolyn sodium],half-life,"[1]; inhaled, taken 4 times daily",45 to 100 min
same,fraction of an oral dose absorbed,[1]; oral dose,about 1%
CS(=O)(=O)Nc1ccc([N+](=O)[O-])cc1Oc1ccccc1 [Nimesulide],% Insufflation pressure after LTD4 1 µg/kg LTD4,[2]; [5],192.45 ± 45.53%
same,% Insufflation pressure after LTD4 1 µg/kg LTD4,[2]; [6],38.99 ± 19.79 %
same,% Insufflation pressure after LTD4 2 µg/kg LTD4,[2]; [5],197.02 ± 37.76%
same,% Insufflation pressure after LTD4 2 µg/kg LTD4,[2]; [6],140.07 ± 61.15 %
same,"effect on insufflation pressure, LTD4-induced contractions",[2]; Nimesulide 11.66 mg/kg,no effect
same,"decrease in % insufflation pressure, LTD4-induced bronchoconstriction",[2]; Nimesulide 23.32 mg/kg p.o,61.0%
same,effect on LTD4-induced contractions,[2]; double dose Nimesulide 23.32 mg/kg,potent inhibitory effect
same,"decrease in % insufflation pressure, egg albumin induced bronchoconstriction","[3]; Nimesulide 11.66 mg/kg p.o, matches the 1 mg/kg egg albumin column of Table 2",90.24%
same,effect on egg albumin induced insufflation pressure,"[3]; egg albumin 1 mg/kg, 2 mg/kg, Nimesulide 11.66 mg/kg",significantly reduced
same,% Insufflation pressure after egg albumin challange 1 mg/kg,"[3]; sensitized guinea pigs, egg albumin 1 mg/kg, Nimesulide 11.66 mg/kg p.o, control 111.88 ± 10.53",9.76 ± 4.17 %
same,% Insufflation pressure after egg albumin challange 2 mg/kg,"[3]; sensitized guinea pigs, egg albumin 2 mg/kg, Nimesulide 11.66 mg/kg p.o, control 196.90 ± 32.98",19.39 ± 4.32 %
same,effect on histamine induced increase in insufflation pressure,"[4]; Nimesulide single dose, S, 11.66 mg/kg and double dose, D, 23.32 mg/kg",no significant inhibitory effect
same,"antihistaminic effect, histamine induced bronchoconstriction","[4]; Nimesulide, dose not given",no antihistaminic effect
same,Histamine Challenge (% Insufflation pressure) 5 µg/kg,[4]; [5],171.07 ± 23.76%
same,Histamine Challenge (% Insufflation pressure) 5 µg/kg,[4]; [6],163.15 ± 43.27%
same,Histamine Challenge (% Insufflation pressure) 10 µg/kg,[4]; [5],236.47 ± 40.40%
same,Histamine Challenge (% Insufflation pressure) 10 µg/kg,[4]; [6],205.10 ± 31.33%
same,IC50,PDE IV,~40 µM
"O=C(O)COCCN1CCN(C(c2ccccc2)c2ccc(Cl)cc2)CC1 (centres unmarked) [Cetrizine, Cetirizine dihydrochloride]",chronic hives patients reporting excellent results,chronic hives patients,~70%
same,% Insufflation pressure after LTD4 1 µg/kg LTD4,[2]; [7],57.14%
same,% Insufflation pressure after LTD4 2 µg/kg LTD4,[2]; [7],92.85%
same,effect on LTD4-induced contractions,[2]; Cetirizine 1.16 mg/kg,significantly blocked
same,"decrease in % insufflation pressure, LTD4-induced bronchoconstriction",[2]; Cetirizine 1.16 mg/kg p.o,42.86%
same,"decrease in % insufflation pressure, histamine induced bronchoconstriction","[4]; Cetirizine 1.16 mg/kg p.o, matches the 5 µg/kg histamine column of Table 1",62.71%
same,Histamine Challenge (% Insufflation pressure) 5 µg/kg,[4]; [8],37.29 ± 6.76 %
same,Histamine Challenge (% Insufflation pressure) 10 µg/kg,[4]; [8],68.35 ± 18.20 %
same,effect on histamine induced increase in insufflation pressure,"[4]; histamine 5 and 10 µg/kg, Cetirizine 1.66 mg/kg (so in the source)",significantly reduced
